Laboratory results: patent publication EP0533226A2, “Novel chromophore containing compounds” (MERCK & CO. INC., priority 1991, dated 1993)
The star is where a group is joined. AMC = Cc1cc(=O)oc2cc(N*)ccc12

Assays:
Type in all cases: biochemical
[1] = target: T1, interleukin-1β converting enzyme (Homo sapiens, UniProt P29466); assay: Direct fluorometric assay of ICE activity of DEAE-purified THP-1 cell lysate in the presence of an enzyme inhibitor (Example 1B); set-up: THP-1 cell lysate purified approximately 100-fold using DEAE-anion exchange chromatography; endogenous in cells; host or cells: THP-1 cells (lysate, about 100-fold DEAE-purified); settings: 25 °C
T1 sequence (P29466 120-297 limits assumed): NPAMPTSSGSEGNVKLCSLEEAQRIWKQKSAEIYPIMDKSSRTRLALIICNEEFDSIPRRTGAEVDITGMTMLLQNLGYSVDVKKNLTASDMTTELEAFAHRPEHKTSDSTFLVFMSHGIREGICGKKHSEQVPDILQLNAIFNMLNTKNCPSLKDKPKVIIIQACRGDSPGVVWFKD
T1 sequence (P29466 317-404 limits assumed): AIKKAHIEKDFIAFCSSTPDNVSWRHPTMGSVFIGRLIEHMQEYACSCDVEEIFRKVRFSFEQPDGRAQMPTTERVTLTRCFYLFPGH
Method: Direct Assay: Interleukin 1β activity of Activity of DEAE-purified THP-1 cell lysate in the presence of an enzyme inhibitor.
(§1) Enzyme: THP-1 cell lysate purified approximately 100-fold using DEAE-anion exchange chromatography stock concentration = 5 units/ul (a unit is defined as the amount of enzyme required to produce 1 pmole of AMC/min at 25 degrees using saturating levels of substrate (> = 50 µM).
Substrate: Ac-Tyr-Val-Ala-Asp-AMC 5 mM stock solution in DMSO
(§2) Buffer: 100 mM Hepes 10% sucrose 0.1% Chaps 1 mM DTT 1 mg/ml BSA pH 7.5
Sample: compound Z (i.e. N-(N-acetyl-tyrosinylvalinyl-alaninyl)-3-amino-4-oxo butanoic acid) 2µM in H20
At 25 ° C, 5µl of substrate 5µl of enzyme and 5µl of sample were added to 485 µl of Buffer as defined above.
Liberation of AMC was monitored using a Gilford Fluoro IV Spectrofluorometer using an excitation wavelength of 380 nm and an emmission wavelength of 460nm. 1µM AMC = 100% relative fluoroscence.

[2] = target: T1, interleukin-1β converting enzyme; assay: Direct fluorometric assay of ICE activity of DEAE-purified THP-1 cell lysate (Example 1A); set-up: THP-1 cell lysate purified approximately 100-fold using DEAE-anion exchange chromatography; endogenous in cells; host or cells: THP-1 cells (lysate, about 100-fold DEAE-purified); settings: substrate cleavage, 25 °C, pH 7.5, 5 µl of 5 mM substrate and 5 µl enzyme (5 units/ul) in 490 µl buffer
Method: Direct Assay: Interleukin 1β activity of Activity of DEAE-purified THP-1 cell lysate.
as §1
Substrate: N-(N-Acetyl-Tyrosinyl)-Valinyl-alaninylaspartic acid 7-amino-4-methylcoumarin amide (i.e. Ac-Tyr-Val-Ala-Asp-AMC) 5 mM stock solution in DMSO
Buffer: 100 mM Hepes 10% sucrose 0.1% Chaps 1 mM DTT 1 mg/ml BSA pH 7.5 At 25 ° C, 5µl of substrate and 5µl of enzyme was added to 490 µl of Buffer as defined above.
Liberation of 7-Amino-4-methylcoumarin (AMC) was monitored using a Gilford Fluoro IV Spectrofluorometer using an excitation wavelength of 380 nm and an emmission wavelength of 460nm. 1µM AMC = 100% relative fluoroscence.

[3] = target: T1, interleukin-1β converting enzyme; assay: Direct spectrophotometric assay of ICE activity of DEAE-purified THP-1 cell lysate (Example 2); set-up: THP-1 cell lysate purified approximately 100-fold using DEAE-anion exchange chromatography; endogenous in cells; host or cells: THP-1 cells (lysate, about 100-fold DEAE-purified); settings: 25 °C, pH 7.5
Method: Direct Assay: Interleukin 1β activity of Activity of DEAE-purified THP-1 cell lysate. Enzyme: THP-1 cell lysate purified approximately 100-fold using DEAE-anion exchange chromatography stock concentration = 5 units/ul (a unit is defined as the amount of enzyme required to produce 1 pmole of p-NA/min at 25 degrees using saturating levels of substrate. p-NA is para-nitroanaline.
Substrate: Ac-Tyr-Val-Ala-Asp-p-NA 5 mM stock solution in DMSO
as §2
At 25 ° C, […] of Buffer as defined above.
Reaction is monitored continuously in a Cary 219 spectrophotometer at a wavelength of 410 nm. Results: The rate of the reaction under these conditions is 0.005 absorbance units/min, corresponding to 0.5 uM pNA produced/min.

[4] = target: T1, interleukin-1β converting enzyme; assay: Coupled fluorometric assay of ICE activity of DEAE-purified THP-1 cell lysate with leucine aminopeptidase (LAPM) (Example 3); set-up: THP-1 cell lysate purified approximately 100-fold using DEAE-anion exchange chromatography; endogenous in cells; host or cells: THP-1 cells (lysate, about 100-fold DEAE-purified); The coupling enzyme LAPM was purchased from Sigma, No. L-0632, and comes from porcine kidney microsomes; settings: 25 C
Method: Coupled Assay: Interleukin 1β activity of Activity of DEAE-purified THP-1 cell lysate.
Enzyme: THP-1 cell lysate purified approximately 100-fold using DEAE-anion exchange chromatography stock concentration = 5 units/ul (a unit is defined as the amount of enzyme required to produce 1 pmole of AMC/min at 25 degrees using saturating levels of substrate ( = 50 uM).
Coupling Enzyme: Leucine Aminopetidase Microsomal (Type IV) (LAPM) (purified from porcine kidney microsomes) EC 3.4.11.2 Sigma No. L-0632 12.5 units/ml stock solution in DMSO
Substrate: Ac-Tyr-Val-Ala-Asp-Gly-AMC 5 mM stock solution in DMSO
as §2
At 25 C, 5µl of substrate 50 µl of LAPM, 5µl of ICE were added to 440 µl of buffer. Reaction is monitored continuously in a Gilford Fluoro-IV Spectrofluorometer. excitation wavelength = 380 nm emission wavelength = 460 nm 1 uM AMC = 100% relative fluoroescence

[5] = 5 µl of sample 2µM in 500 µl, substrate Ac-Tyr-Val-Ala-Asp-AMC

Compound: CC(=O)N[C@@H](Cc1ccc(O)cc1)C(=O)N[C@H](C(=O)N[C@@H](C)C(=O)N[C@@H](CC(=O)O)C(=O)Nc1ccc2c(C)cc(=O)oc2c1)C(C)C [Ac-Tyr-Val-Ala-Asp-AMC, N-(N-Acetyl-tyrosinyl-valinyl-alaninyl)-aspartic acid a-7-amino-4-methylcoumarin amide]
- initial velocity ([1]; uninhibited initial velocity of substrate cleavage in the presence of compound Z, pH 7.5): 0.05 uM AMC produced/min
- rate [2]: 0.005 mM AMC/min
- 100% relative fluoroscence achieved in ([2]; 1µM AMC = 100% relative fluorescence): 20 min

Compound: CC(=O)N[C@@H](Cc1ccc(O)cc1)C(=O)N[C@H](C(=O)N[C@@H](C)C(=O)N[C@@H](CC(=O)O)C(=O)Nc1ccc([N+](=O)[O-])cc1)C(C)C [Ac-Tyr-Val-Ala-Asp-p-NA]
- rate of the reaction (pNA produced) ([3]; corresponding to the absorbance rate at 410 nm): 0.5 uM pNA produced/min
- rate of the reaction ([3]; substrate cleavage monitored at 410 nm, 5 mM substrate stock): 0.005 absorbance units/min

Compound: N-(N-Acetyl-tyrosinyl-valinyl-alaninyl-aspartylglycinyl)-7-amino-4-methylcoumarin (Ac-YVADG-{AMC}; SMILES CC(=O)N[C@@H](Cc1ccc(O)cc1)C(=O)N[C@H](C(=O)N[C@@H](C)C(=O)N[C@@H](CC(=O)O)C(=O)NCC(=O)Nc1ccc2c(C)cc(=O)oc2c1)C(C)C) [Ac-Tyr-Val-Ala-Asp-Gly-AMC]
- time required to reach 99% of the steady state of the ICE reaction ([4]; 7 x t 1/2, coupled assay with LAPM): 11 min
- velocity of the steady state reaction ([4]; coupled assay with LAPM, 5 µl of 5 mM substrate, 5 µl ICE in 500 µl, pH 7.5): 0.05 uM AMC/min
- rate constant that describes the approach to steady state ([4]; lag phase, determined by the amount of coupling enzyme (50 µl LAPM, 12.5 units/ml stock)): 0.44 + 0.01 min -1

Compound: N-(N-acetyl-tyrosinylvalinyl-alaninyl)-3-amino-4-oxo butanoic acid [Compound Z]
- half-life for the slow onset of inhibition [1, 5]: 2.7 min
- rate constant for inhibition [1, 5]: 0.25 min-^1
- inhibition ([1]; slow onset of inhibition, value eventually approached, 5 µl of sample 2µM in 500 µl): ~100%
- kind of inhibition ([1]; substrate Ac-Tyr-Val-Ala-Asp-AMC, 5 µl of sample 2µM in H2O in 500 µl, pH 7.5): slow, tight-binding inhibitor
